Measured values: patent US9315451B2, “Tetracycline compounds” (priority 2009, dated 2016)
Where two headings read alike, the source gives them in different places.

Legend:
Assay type in all cases: in vivo
[1] = test system: S. aureus Smith (ATCC 13709); experiment: Mouse systemic infection (septicemia) model, S. aureus Smith; conditions: Staphylococcus aureus, CD-1 female mice; for responders at 3 mg/kg: ATCC13709, iv, IV 3 mg/kg one hour post infection, read-out: SA Smith septicemia survival IV (3 mg/kg); for responders at 3 mg/kg / responders at 30 mg/kg: 48 h, survival at 48 hours; for responders at 30 mg/kg: ATCC13709, po, PO 30 mg/kg one hour post infection, read-out: SA Smith septicemia survival PO (30 mg/kg); for ED50: ATCC13709, dose that prevents 50% of the mice from death, 48 hours
Procedure: Mouse Systemic Infection Protocol-S. aureus Smith Septicemia
Compounds were screened for antibacterial activity in vivo in a mouse systemic infection (septicemia) model. In the model, CD-1 female mice (18-22 grams) were injected IP with a S. aureus Smith (ATCC 13709) inoculum that results in 0% survival within 24 to 48 hours. The bacterial dose required to achieve this effect was previously established through virulence studies. At one hour post infection, mice received either […] IV or […] PO. Typically, six mice were treated per dose group. Animal survival was assessed and recorded for 48 hours. Percent survival at 48 hours was recorded and PD50 (mg/kg) was determined for each compound tested.

[2] = test system: Uropathogenic E. coli EC200; experiment: Murine kidney infection model, uropathogenic E. coli EC200; conditions: Escherichia coli, po, 36 h, BALB/c mice, read-out: EC200 UTI PO, log10 reduction in CFUs in the kidney versus untreated controls; for log reduction at 2 mg/kg: PO 2 mg/kg at 12 and 24 hours post infection
Procedure: (§1) Kidney Infection Models for Uropathogenic E. coli EC200 and K. pneumoniae ESBL Isolate KP453
Compounds were tested in a BALB/c murine kidney infection model challenged with tetracycline-resistant E. coli strain uropathogenic […] via intravenous injection. […] For IV administration test compound was dosed at 3 mg/kg. Thirty-six hours following initiation of treatment, mice were euthanized and bacterial reduction in the kidney was quantified by plating kidney homogenates. Results are reported in Table D as log10 reduction in colony forming units (CFUs) in the kidney versus untreated controls (receiving no test compound).

[3] = test system: K. pneumoniae ESBL Isolate KP453; experiment: Murine kidney infection model, K. pneumoniae ESBL isolate KP453; conditions: Klebsiella pneumoniae, po, 36 h, BALB/c mice, PO 50 mg/kg at 9 and 24 hours post infection; read-out: KP453 ESBL UTI PO, log10 reduction in CFUs in the kidney versus untreated controls
Procedure: as §1
Compounds were also tested in BALB/c murine kidney infection model challenged with levofloxacin-resistant, ESBL^+ strain KP453 via intravenous injection with 2% carageenen. At 9 and 24 hours post infection mice were treated orally with 50 mg/kg of test compound. For IV administration, test compounds were dosed at 20 mg/kg. At 36 hours following initiation of treatment, mice were euthanized and bacterial reduction in the kidney was quantified by plating homogenates. Results are reported in Table D as log10 reduction in colony forming units (CFUs) in the kidney versus untreated controls (receiving no test compound).

[4] = Pharmacokinetic studies in rats; conditions: rat, plasma, male Sprague Dawley rats, fasted; for clearance: read-out: Cl, IV Rat PK; for bioavailability: oral 10 mg/kg vs IV 1 mg/kg, read-out: % F (oral bioavailability), Oral Rat PK; for Cmax: read-out: Cmax, IV Rat PK
Procedure: Pharmacokinetic Studies in Rats Test compounds were evaluated in fasted (no food for 18 hours prior to dosing) male Sprague Dawley rats (3 animals per group) by administration of 1 mg/kg intravenously into the jugular vein and […] by oral gavage. Ten plasma samples were drawn for each dosing route up to 24 hours into heparin-coated vacutainer tubes. The plasma concentrations of the test compounds were quantified by LC/MS/MS using an internal standards. WinNONLIN was used to determine PK parameters ±standard deviation (AUC, Cmax, CL, Vss and % oral bioavailabilty (% F) and are set forth in Table F.

[5] = IV, read-out: SA Smith septicemia PD50 IV
[6] = PO, read-out: SA Smith septicemia PD50 PO
[7] = IV 1 mg/kg, read-out: AUC, IV Rat PK
[8] = oral gavage 10 mg/kg, read-out: AUC, Oral Rat PK

| SMILES | responders at 3 mg/kg [1] | responders at 30 mg/kg [1] | ED50 [1, 5] | ED50 [1, 6] | log reduction at 2 mg/kg [2] | log reduction at 50 mg/kg [3] | clearance ([4]; IV 1 mg/kg) | bioavailability [4] | AUC [4, 7] | Cmax ([4]; IV 1 mg/kg) | AUC [4, 8] | log reduction at 12 mg/kg ([2]; PO @ 12 mpk) | log reduction at 3 mg/kg ([2]; PO @ 3 mpk) |
| --- | --- | --- | --- | --- | --- | --- | --- | --- | --- | --- | --- | --- | --- |
| CN(C)[C@@H]1C(O)=C(C(N)=O)C(=O)[C@@]2(O)C(O)=C3C(=O)c4c(O)cc(CN5CCCC5(C)C)c(F)c4C[C@H]3C[C@@H]12 [Compound S2-4-12] | 100% | 100% | 0.69 mg/kg | 2.1 mg/kg | 2.51 | 2.15 | 21.3 mL/min/kg | 14.6% | 754 ng·h/mL | 126 ng/mL | 1160 ng·h/mL | – | – |
| CCN(Cc1cc(O)c2c(c1Cl)C[C@H]1C[C@H]3[C@H](N(C)C)C(O)=C(C(N)=O)C(=O)[C@@]3(O)C(O)=C1C2=O)[C@H](C)C(C)(C)C [Compound S15-13-122] | – | – | – | – | 2.64 | 1.84 | – | – | – | – | – | – | – |
| CN(C)[C@@H]1C(O)=C(C(N)=O)C(=O)[C@@]2(O)C(O)=C3C(=O)c4c(O)cc(CN5CCCC5(C)C)c(Cl)c4C[C@H]3C[C@@H]12 [Compound S15-13-4] | 100% | 100% | – | 6.2 mg/kg | 3.17 | 1.69 | – | – | – | – | – | – | – |
| CN(C)[C@@H]1C(O)=C(C(N)=O)C(=O)[C@@]2(O)C(O)=C3C(=O)c4c(O)cc(CN5CCCC5)c(F)c4C[C@H]3C[C@@H]12 [Compound S3-5-5] | 100% | 100% | – | – | 2.26 | 1.01 | – | – | – | – | – | – | – |
| COc1c(CN2CCCC[C@@H]2C)cc(O)c2c1C[C@H]1C[C@H]3[C@H](N(C)C)C(O)=C(C(N)=O)C(=O)[C@@]3(O)C(O)=C1C2=O [Compound S24-9-17] | 100% | 100% | – | – | 2.61 | 2.41 | – | – | – | – | – | – | – |
| C[C@H]1CCCCN1Cc1cc(O)c2c(c1F)C[C@H]1C[C@H]3[C@H](N(C)C)C(O)=C(C(N)=O)C(=O)[C@@]3(O)C(O)=C1C2=O [Compound S2-4-65] | 100% | 100% | – | 8.4 mg/kg | 3.18 | 2.28 | – | – | – | – | – | 4.61 | – |
| CN(C)[C@@H]1C(O)=C(C(N)=O)C(=O)[C@@]2(O)C(O)=C3C(=O)c4c(O)cc(CN(C)C(C)(C)C5CC5)c(F)c4C[C@H]3C[C@@H]12 [Compound S2-4-29] | 100% | 100% | 1 mg/kg | 3.5 mg/kg | – | – | 26.5 mL/min/kg | 25.4% | 616 ng·h/mL | 112 ng/mL | 1600 ng·h/mL | – | – |
| CN(C)[C@@H]1C(O)=C(C(N)=O)C(=O)[C@@]2(O)C(O)=C3C(=O)c4c(O)cc(CN5CCCC5)c(C(F)(F)F)c4C[C@H]3C[C@@H]12 [Compound S25-11-1] | 100% | 100% | – | – | 3.97 | 1.84 | – | – | – | – | – | – | – |
| CN(C)[C@@H]1C(O)=C(C(N)=O)C(=O)[C@@]2(O)C(O)=C3C(=O)c4c(O)cc(CN5CCCC5)c(Cl)c4C[C@H]3C[C@@H]12 [Compound S15-13-187] | 100% | 100% | – | – | – | – | – | – | – | – | – | – | 3.46 |
| C[C@H]1CCCN1Cc1cc(O)c2c(c1Cl)C[C@H]1C[C@H]3[C@H](N(C)C)C(O)=C(C(N)=O)C(=O)[C@@]3(O)C(O)=C1C2=O [Compound S15-13-194] | 100% | 100% | – | – | 3.44 | 2.18 | – | – | – | – | – | – | – |
| CC1CCN(Cc2cc(O)c3c(c2F)C[C@H]2C[C@H]4[C@H](N(C)C)C(O)=C(C(N)=O)C(=O)[C@@]4(O)C(O)=C2C3=O)CC1 [Compound S2-4-19] | 100% | 83% | 1 mg/kg | 14.3 mg/kg | 1.91 | 1.27 | 5 mL/min/kg | 14.9% | 3320 ng·h/mL | 518 ng/mL | 4980 ng·h/mL | – | – |
| CN(C)[C@@H]1C(O)=C(C(N)=O)C(=O)[C@@]2(O)C(O)=C3C(=O)c4c(O)cc(CN(C)C(C)(C)C)c(Cl)c4C[C@H]3C[C@@H]12 [Compound S15-13-15] | 100% | 100% | – | 3.5 mg/kg | 2.82 | 1.45 | 15.4 mL/min/kg | 21% | 1100 ng·h/mL | 154 ng/mL | 2260 ng·h/mL | – | – |
| COc1c(CN2[C@H](C)CCC[C@@H]2C)cc(O)c2c1C[C@H]1C[C@H]3[C@H](N(C)C)C(O)=C(C(N)=O)C(=O)[C@@]3(O)C(O)=C1C2=O [Compound S24-9-25] | 100% | 100% | – | – | 2.99 | 1.71 | – | – | – | – | – | – | – |
| CN(C)c1c(CN2CCCCCC2)cc(O)c2c1C[C@H]1C[C@H]3[C@H](N(C)C)C(O)=C(C(N)=O)C(=O)[C@@]3(O)C(O)=C1C2=O [Compound S16-10-177] | 100% | 100% | – | – | – | – | – | – | – | – | – | – | – |
| CN(C)[C@@H]1C(O)=C(C(N)=O)C(=O)[C@@]2(O)C(O)=C3C(=O)c4c(O)cc(CN[C@@H]5CC6CCC5C6)c(Cl)c4C[C@H]3C[C@@H]12 (stereo partly drawn) [Compound S15-13-23] | 83% | 50% | – | – | – | – | – | – | – | – | – | – | – |
| CN(C)c1c(CN2CCCC2(C)C)cc(O)c2c1C[C@H]1C[C@H]3[C@H](N(C)C)C(O)=C(C(N)=O)C(=O)[C@@]3(O)C(O)=C1C2=O [Compound S16-10-11] | 100% | 100% | – | 10 mg/kg | – | – | – | – | – | – | – | – | – |
